From patent publication US10562898B2, “Substituted benzenesulfonamides as inhibitors of alpha-4 beta-7 integrin activity” (EA PHARMA CO., LTD., priority 2016, dated 2020)
pIC50: −log10 of the molar value.

Biological target: T1, α4β7 integrin (Homo sapiens, UniProt P13612+P26010)
T1 construct: a cell line RPMI-8866, which is known to express α4β7 integrin; endogenous in cells; host or cells: RPMI-8866 (human B cell line)
T1 sequence (P13612 34-1032): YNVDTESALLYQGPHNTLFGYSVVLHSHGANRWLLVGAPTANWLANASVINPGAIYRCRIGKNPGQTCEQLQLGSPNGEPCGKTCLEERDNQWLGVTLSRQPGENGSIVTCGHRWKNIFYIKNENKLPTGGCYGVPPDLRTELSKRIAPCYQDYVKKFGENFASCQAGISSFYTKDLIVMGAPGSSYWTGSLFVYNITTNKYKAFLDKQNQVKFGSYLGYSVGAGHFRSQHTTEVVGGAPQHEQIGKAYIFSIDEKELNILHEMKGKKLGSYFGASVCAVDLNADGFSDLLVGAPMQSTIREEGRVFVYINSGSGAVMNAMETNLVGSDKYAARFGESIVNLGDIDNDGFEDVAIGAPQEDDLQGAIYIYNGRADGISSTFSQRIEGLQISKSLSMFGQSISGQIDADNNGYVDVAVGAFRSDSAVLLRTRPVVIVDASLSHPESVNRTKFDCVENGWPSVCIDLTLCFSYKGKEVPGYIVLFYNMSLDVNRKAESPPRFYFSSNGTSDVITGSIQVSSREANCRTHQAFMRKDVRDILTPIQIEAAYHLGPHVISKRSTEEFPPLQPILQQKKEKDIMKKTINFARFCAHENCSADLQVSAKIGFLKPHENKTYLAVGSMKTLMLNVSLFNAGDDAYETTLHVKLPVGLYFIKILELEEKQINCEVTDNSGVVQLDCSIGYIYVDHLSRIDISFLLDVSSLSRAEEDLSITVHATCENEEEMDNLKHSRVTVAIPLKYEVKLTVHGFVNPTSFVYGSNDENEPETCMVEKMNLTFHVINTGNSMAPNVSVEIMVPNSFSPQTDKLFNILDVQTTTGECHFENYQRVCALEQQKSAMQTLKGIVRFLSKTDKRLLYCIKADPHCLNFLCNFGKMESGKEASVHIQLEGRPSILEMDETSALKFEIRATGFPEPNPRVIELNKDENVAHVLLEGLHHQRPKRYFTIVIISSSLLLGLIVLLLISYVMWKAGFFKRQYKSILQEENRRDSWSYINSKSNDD
T1 sequence (P26010 20-798): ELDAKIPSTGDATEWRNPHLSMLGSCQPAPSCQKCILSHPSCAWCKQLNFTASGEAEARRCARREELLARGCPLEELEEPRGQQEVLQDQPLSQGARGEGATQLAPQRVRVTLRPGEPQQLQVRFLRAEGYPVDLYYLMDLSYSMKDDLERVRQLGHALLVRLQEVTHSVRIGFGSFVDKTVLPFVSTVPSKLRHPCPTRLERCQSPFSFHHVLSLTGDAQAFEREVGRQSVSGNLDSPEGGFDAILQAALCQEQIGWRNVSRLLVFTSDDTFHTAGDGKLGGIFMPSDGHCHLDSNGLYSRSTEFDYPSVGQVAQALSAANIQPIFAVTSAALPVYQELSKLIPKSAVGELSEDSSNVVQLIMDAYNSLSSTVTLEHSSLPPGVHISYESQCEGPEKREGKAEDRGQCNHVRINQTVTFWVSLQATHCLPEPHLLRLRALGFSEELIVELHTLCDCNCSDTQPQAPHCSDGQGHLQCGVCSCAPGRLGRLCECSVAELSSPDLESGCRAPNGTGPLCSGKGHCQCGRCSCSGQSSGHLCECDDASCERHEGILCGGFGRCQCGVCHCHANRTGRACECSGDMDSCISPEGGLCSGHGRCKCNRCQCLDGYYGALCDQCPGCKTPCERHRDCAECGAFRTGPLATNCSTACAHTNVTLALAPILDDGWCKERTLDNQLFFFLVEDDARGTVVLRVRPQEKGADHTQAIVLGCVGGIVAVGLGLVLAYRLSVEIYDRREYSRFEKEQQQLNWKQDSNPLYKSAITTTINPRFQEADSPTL
Assay: MAdCAM-1/α4β7 integrin binding inhibitory activity evaluation test in presence of serum
Type: cell-based
Details: RPMI-8866 cells, recombinant mouse MAdCAM-1/Fc, 50% human serum; read-out: α4β7 Serum Added IC50
Summary of the method: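 RPMI-8866 human B cells (5×10^5/well) bound to plates coated with recombinant mouse MAdCAM-1/Fc, with compound in DMEM/HEPES/BSA/4 mM MnCl2 containing 50% human serum final, 30 °C for 15–60 min. Bound cells quantified by LDH release (A490); IC50 from binding relative to no-compound wells, duplicate.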

Row | pIC50 | SMILES
1 | 7.92 | Cn1c(=O)n(-c2ccc(C[C@H](NC(=O)c3cc(F)c(NS(=O)(=O)c4ccc(NC(=O)C5CCOCC5)cc4)cc3F)C(=O)O)cc2)c(=O)c2ccncc21 [Compound A14]
2 | 7.32 | Cc1c(C)n(C)c(=O)n(-c2ccc(C[C@H](NC(=O)c3cc(F)c(NS(=O)(=O)c4ccc(NC(=O)C(C)(C)C)nc4)cc3F)C(=O)O)cc2)c1=O [Compound A25]
